Data reported in the supplement of paper PMC11665569.
± gives the standard deviation of the averaged measurements.

Legend:
[1] = tested on: SW1573; settings: treatment time: 5 days
Experimental: (§1)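 CCK-8 viability of KRAS G12C-mutant cancer cell lines transfected with control, YAP/TAZ or TEAD1-4 siRNAs and treated with KRAS G12C inhibitors for 5 days; IC50 fitted in Prism after normalising absorbance at 450 nm to vehicle control.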

[2] = tested on: H1373; settings: treatment time: 5 days
Experimental: as §1

[3] = tested on: KYSE410; settings: treatment time: 5 days
Experimental: as §1

[4] = tested on: H2030; settings: treatment time: 5 days
Experimental: as §1

[5] = tested on: H358; settings: treatment time: 5 days
Experimental: as §1

[6] = tested on: H1792; settings: siRNA knockdown (Con = control): Con; treatment time: 5 days
Experimental: as §1

[7] = tested on: MIAPACA2; settings: treatment time: 5 days
Experimental: as §1

[8] = tested on: KYSE410; assay: relative viability (fraction of vehicle control); higher = more viable / less inhibited; settings: treatment time: 5 days
Experimental: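 CCK-8 viability of KYSE410 cells transfected with control, YAP/TAZ or TEAD1-4 siRNAs and treated with KRAS G12C inhibitors for 5 days. Values are normalised to vehicle control.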

[9] = tested on: MIAPACA2; assay: as above; settings: treatment time: 5 days
Experimental: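 CCK-8 viability of MIAPACA2 cells with empty vector or constitutively active YAP S127A, treated with KRAS G12C inhibitors for 5 days, normalised to vehicle control.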

C=CC(=O)N1CCN(c2nc(=O)n(-c3c(C)ccnc3C(C)C)c3nc(-c4c(O)cccc4F)c(F)cc23)[C@@H](C)C1 [AMG510]
Settings	IC50 (cell viability, 5 days) [nM]	relative viability
[1], siRNA knockdown (Con = control): Con	12300	–
[1], siRNA knockdown (Con = control): TEAD1234_si1	10.9	–
[1], siRNA knockdown (Con = control): TEAD1234_si2	4.11	–
[1], siRNA knockdown (Con = control): YAP_WWTR1_si1	2.87	–
[1], siRNA knockdown (Con = control): YAP_WWTR1_si2	3.42	–
[2], siRNA knockdown (Con = control): Con	30.7	–
[2], siRNA knockdown (Con = control): YAP_WWTR1_si1	10.2	–
[2], siRNA knockdown (Con = control): YAP_WWTR1_si2	4.31	–
[3], siRNA knockdown (Con = control): Con	3540	–
[3], siRNA knockdown (Con = control): TEAD1234_si1	853	–
[3], siRNA knockdown (Con = control): YAP_WWTR1_si1	163	–
[3], siRNA knockdown (Con = control): YAP_WWTR1_si2	33.5	–
[4], siRNA knockdown (Con = control): TEAD1234_si2	10.9	–
[4], siRNA knockdown (Con = control): YAP_WWTR1_si1	8.18	–
[5], siRNA knockdown (Con = control): Con	7.18	–
[5], siRNA knockdown (Con = control): TEAD1234_si1	4.08	–
[5], siRNA knockdown (Con = control): TEAD1234_si2	4.17	–
[5], siRNA knockdown (Con = control): YAP_WWTR1_si1	4.08	–
[5], siRNA knockdown (Con = control): YAP_WWTR1_si2	2.96	–
[7], siRNA knockdown (Con = control): Con	163	–
[7], siRNA knockdown (Con = control): TEAD1234_si1	66.1	–
[7], siRNA knockdown (Con = control): TEAD1234_si2	57.5	–
[7], siRNA knockdown (Con = control): YAP_WWTR1_si1	46.3	–
[7], siRNA knockdown (Con = control): YAP_WWTR1_si2	69.9	–
[8], log10 concentration (uM): 0, siRNA knockdown: TEAD1-4 siRNA 1	–	0.586 ± 0.025
[8], log10 concentration (uM): 0, siRNA knockdown: TEAD1-4 siRNA 2	–	0.488 ± 0.038
[8], log10 concentration (uM): 0, siRNA knockdown: YAP/TAZ siRNA 1	–	0.416 ± 0.019
[8], log10 concentration (uM): 0, siRNA knockdown: YAP/TAZ siRNA 2	–	0.353 ± 0.036
[8], log10 concentration (uM): 0, siRNA knockdown: negative control siRNA	–	0.695 ± 0.0059
[8], log10 concentration (uM): 1, siRNA knockdown: TEAD1-4 siRNA 1	–	0.181 ± 0.014
[8], log10 concentration (uM): 1, siRNA knockdown: TEAD1-4 siRNA 2	–	0.118 ± 0.015
[8], log10 concentration (uM): 1, siRNA knockdown: YAP/TAZ siRNA 1	–	0.141 ± 0.017
[8], log10 concentration (uM): 1, siRNA knockdown: YAP/TAZ siRNA 2	–	0.137 ± 0.012
[8], log10 concentration (uM): 1, siRNA knockdown: negative control siRNA	–	0.382 ± 0.017
[8], log10 concentration (uM): 1.301029996, siRNA knockdown: TEAD1-4 siRNA 1	–	0.0525 ± 0.013
[8], log10 concentration (uM): 1.301029996, siRNA knockdown: TEAD1-4 siRNA 2	–	0.0471 ± 0.013
[8], log10 concentration (uM): 1.301029996, siRNA knockdown: YAP/TAZ siRNA 1	–	0.0378 ± 0.0039
[8], log10 concentration (uM): 1.301029996, siRNA knockdown: YAP/TAZ siRNA 2	–	0.0518 ± 0.0073
[8], log10 concentration (uM): 1.301029996, siRNA knockdown: negative control siRNA	–	0.164 ± 0.0062
[8], log10 concentration (uM): -1, siRNA knockdown: TEAD1-4 siRNA 1	–	0.691 ± 0.11
[8], log10 concentration (uM): -1, siRNA knockdown: TEAD1-4 siRNA 2	–	0.63 ± 0.13
[8], log10 concentration (uM): -1, siRNA knockdown: YAP/TAZ siRNA 1	–	0.59 ± 0.021
[8], log10 concentration (uM): -1, siRNA knockdown: YAP/TAZ siRNA 2	–	0.489 ± 0.013
[8], log10 concentration (uM): -1, siRNA knockdown: negative control siRNA	–	0.749 ± 0.017
[8], log10 concentration (uM): -1.30103, siRNA knockdown: TEAD1-4 siRNA 1	–	0.727 ± 0.12
[8], log10 concentration (uM): -1.30103, siRNA knockdown: TEAD1-4 siRNA 2	–	0.664 ± 0.11
[8], log10 concentration (uM): -1.30103, siRNA knockdown: YAP/TAZ siRNA 1	–	0.643 ± 0.04
[8], log10 concentration (uM): -1.30103, siRNA knockdown: YAP/TAZ siRNA 2	–	0.522 ± 0.024
[8], log10 concentration (uM): -1.30103, siRNA knockdown: negative control siRNA	–	0.775 ± 0.015
[8], log10 concentration (uM): -2, siRNA knockdown: TEAD1-4 siRNA 1	–	0.946 ± 0.078
[8], log10 concentration (uM): -2, siRNA knockdown: TEAD1-4 siRNA 2	–	1.02 ± 0.076
[8], log10 concentration (uM): -2, siRNA knockdown: YAP/TAZ siRNA 1	–	0.841 ± 0.058
[8], log10 concentration (uM): -2, siRNA knockdown: YAP/TAZ siRNA 2	–	0.713 ± 0.012
[8], log10 concentration (uM): -2, siRNA knockdown: negative control siRNA	–	0.884 ± 0.013
[8], log10 concentration (uM): -2.30103, siRNA knockdown: TEAD1-4 siRNA 1	–	0.967 ± 0.075
[8], log10 concentration (uM): -2.30103, siRNA knockdown: TEAD1-4 siRNA 2	–	0.941 ± 0.14
[8], log10 concentration (uM): -2.30103, siRNA knockdown: YAP/TAZ siRNA 1	–	0.929 ± 0.025
[8], log10 concentration (uM): -2.30103, siRNA knockdown: YAP/TAZ siRNA 2	–	0.7753 ± 0.0064
[8], log10 concentration (uM): -2.30103, siRNA knockdown: negative control siRNA	–	0.9373 ± 0.0086
[8], log10 concentration (uM): -3, siRNA knockdown: TEAD1-4 siRNA 1	–	1.21 ± 0.052
[8], log10 concentration (uM): -3, siRNA knockdown: TEAD1-4 siRNA 2	–	1.19 ± 0.12
[8], log10 concentration (uM): -3, siRNA knockdown: YAP/TAZ siRNA 1	–	0.996 ± 0.023
[8], log10 concentration (uM): -3, siRNA knockdown: YAP/TAZ siRNA 2	–	0.961 ± 0.039
[8], log10 concentration (uM): -3, siRNA knockdown: negative control siRNA	–	0.953 ± 0.019
[8], log10 concentration (uM): -4, siRNA knockdown: TEAD1-4 siRNA 1	–	1.08 ± 0.031
[8], log10 concentration (uM): -4, siRNA knockdown: TEAD1-4 siRNA 2	–	1.32 ± 0.087
[8], log10 concentration (uM): -4, siRNA knockdown: YAP/TAZ siRNA 1	–	1.03 ± 0.039
[8], log10 concentration (uM): -4, siRNA knockdown: YAP/TAZ siRNA 2	–	0.998 ± 0.016
[8], log10 concentration (uM): -4, siRNA knockdown: negative control siRNA	–	0.951 ± 0.013
[9], log10 concentration (uM): 0, ectopic expression: YAP S127A	–	0.773 ± 0.0088
[9], log10 concentration (uM): 0, ectopic expression: empty vector (YAP experiment)	–	0.0894 ± 0.0063
[9], log10 concentration (uM): 1, ectopic expression: YAP S127A	–	0.727 ± 0.084
[9], log10 concentration (uM): 1, ectopic expression: empty vector (YAP experiment)	–	0.106 ± 0.0058
[9], log10 concentration (uM): 1.301029996, ectopic expression: YAP S127A	–	0.285 ± 0.026
[9], log10 concentration (uM): 1.301029996, ectopic expression: empty vector (YAP experiment)	–	0.047 ± 0.0069
[9], log10 concentration (uM): -1, ectopic expression: YAP S127A	–	0.861 ± 0.027
[9], log10 concentration (uM): -1, ectopic expression: empty vector (YAP experiment)	–	0.128 ± 0.0098
[9], log10 concentration (uM): -1.30103, ectopic expression: YAP S127A	–	0.91 ± 0.013
[9], log10 concentration (uM): -1.30103, ectopic expression: empty vector (YAP experiment)	–	0.237 ± 0.051
[9], log10 concentration (uM): -2, ectopic expression: YAP S127A	–	0.988 ± 0.091
[9], log10 concentration (uM): -2, ectopic expression: empty vector (YAP experiment)	–	0.79 ± 0.17
[9], log10 concentration (uM): -2.30103, ectopic expression: YAP S127A	–	1.03 ± 0.025
[9], log10 concentration (uM): -2.30103, ectopic expression: empty vector (YAP experiment)	–	0.906 ± 0.068
[9], log10 concentration (uM): -3, ectopic expression: YAP S127A	–	1.05 ± 0.15
[9], log10 concentration (uM): -3, ectopic expression: empty vector (YAP experiment)	–	1.03 ± 0.016
[9], log10 concentration (uM): -4, ectopic expression: YAP S127A	–	1 ± 0.18
[9], log10 concentration (uM): -4, ectopic expression: empty vector (YAP experiment)	–	1 ± 0.079

Settings	IC50 (cell viability, 5 days) [nM]
[6]	6330
